Values joined by “and” are separate entries in the source; they are usually repeats but may differ in a detail not shown here. Identical values can stand only once.

The record followed here is patent US8012963B2, “3,4-dihydro-2H-benzo[1,4]oxazine and thiazine derivatives as CETP inhibitors” (Janssen Pharmaceutica N.V., priority 2006, dated 2011).

For the test, the target named is T1, CETP (Homo sapiens, UniProt P11597).
T1 construct: from tissue; host or cells: human plasma from normal volunteers
T1 sequence (P11597 18-493): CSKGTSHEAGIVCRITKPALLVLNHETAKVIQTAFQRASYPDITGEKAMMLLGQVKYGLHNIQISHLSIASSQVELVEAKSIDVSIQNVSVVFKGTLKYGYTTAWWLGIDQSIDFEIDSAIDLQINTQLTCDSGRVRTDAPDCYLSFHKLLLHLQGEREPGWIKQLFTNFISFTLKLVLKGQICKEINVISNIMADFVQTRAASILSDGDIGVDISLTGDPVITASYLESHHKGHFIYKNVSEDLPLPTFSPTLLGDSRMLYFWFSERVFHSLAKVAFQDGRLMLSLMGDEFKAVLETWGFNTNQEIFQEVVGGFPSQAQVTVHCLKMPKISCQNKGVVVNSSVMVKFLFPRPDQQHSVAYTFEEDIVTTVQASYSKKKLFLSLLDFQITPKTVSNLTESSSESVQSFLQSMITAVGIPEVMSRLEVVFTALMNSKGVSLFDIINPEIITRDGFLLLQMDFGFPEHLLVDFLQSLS
In words: CETP in vitro assay ([3H]CE-HDL transfer, Amersham kit TRKQ7005; modified protocol in human plasma). To be noted: multiple values = multiple measurements; for % Inhibition @ 1 μM / inhibition at 1 µM: 1 μM compound. The test is classed as biochemical. As for the experimental part: The CETP inhibitory activity of the compounds was determined using a commercially available kit from Amersham Biosciences (Catalog #TRKQ7005).
For the measurement of inhibitory activity in human plasma, a modified protocol (Connolly, D. T. et al., Biochemistry, 39 13870-13879, 2000) was used. Briefly, 80 μl of human plasma (obtained from normal volunteers), approximately 25 μg/ml (200) of [^3H]CE-HDL (Amersham Biosciences from kit TRKQ7005) and 1 μl of compound dissolved in DMSO was incubated for at least 4 hrs at 37° C. and non-specific transfer was determined by incubating a corresponding plate at 4° C. (blank). After the incubation period, 100 of a solution of 1% Dextralip 50/0.5M MgCl2, pH 7.4 was added, vortexed and incubated at room temperature for 10 min. The plate was then centrifuged for 30 min at 10° C. at 3000 rpm in a Sorvall RT6000B centrifuge. Fifty microliters of the supernatant was transferred to a Picoplate (Packard) containing 100 μl of Microscint 40 (Perkin Elmer) and mixed for 30 min using a plate mixer. The radioactivity was counted using a TopCount (Perkin Elmer) and the % control was determined in the samples using the following formula: % transfer relative to vehicle controls (% control)=[cpm blank-cpm test]/cpm blank/cpm control]×100. IC50s were calculated from plots of the % control versus compound concentration.
A variety of example compounds have been made and tested, with a range of in vitro results. Below, in Table 2, are representative compounds and the corresponding data; in some cases, where multiple IC50's are shown, multiple measurements were taken. Naturally, different compounds in Formula (I), (Ia), (Ib) and (Ic) may have not activities identical to any one compound below.

For the molecule `OC(CN1c2cccc(-c3cccc(F)c3)c2OCC1c1cccc(OC(F)(F)C(F)F)c1)C(F)(F)F` (single isomer, unassigned) [Compound 66, 1,1,1-Trifluoro-3-{8-(3-fluoro-phenyl)-3-[3-(1,1,2,2-tetrafluoro-ethoxy)-phenyl]-2,3-dihydro-benzo[1,4]oxazin-4-yl}-propan-2-ol], the “% Inhibition @ 1 μM” value is 104% and 79% and 107%. For orientation: inhibition means the drop in the measured response relative to a control, in per cent. A low value points to a weak effect. The term IC50 denotes the concentration that inhibits the measured activity by half. Higher therefore signals weaker potency in that assay. Take `O[C@@H](CN1c2cccc(-c3cc(C(F)(F)F)cc(C(F)(F)F)c3)c2OC[C@@H]1c1cccc(OC(F)(F)C(F)F)c1)C(F)(F)F` [Compound 78, 4H-1,4-Benzoxazine-4-ethanol, 2,3-dihydro-3-[3-(1,1,2,2-tetrafluoroethoxy)phenyl]-8-[3,5-bis(trifluoromethyl)phenyl]-α-(trifluoromethyl)-, (3S,αS)—]: the inhibition at 1 µM worked out at 55%, the “% Inhibition @ 1 μM” value is given as 62% and the IC50 is 580 nM. For the molecule `CC(=O)CN1c2cccc(-c3cccc(OC(F)(F)F)c3)c2OC[C@@H]1c1cccc(OC(F)(F)C(F)F)c1` [Compound 38, 2-Propanone, 1-[(3S)-2,3-dihydro-3-[3-(1,1,2,2-tetrafluoroethoxy)phenyl]-8-[3-(trifluoromethoxy)phenyl]-4H-1,4-benzoxazin-4-yl]-], the inhibition at 1 µM stood at 5%. On to `O[C@H](CN1c2cccc(-c3cc(C(F)(F)F)cc(C(F)(F)F)c3)c2OC[C@@H]1c1cccc(OC(F)(F)C(F)F)c1)C(F)(F)F` [Compound 79, 4H-1,4-Benzoxazine-4-ethanol, 2,3-dihydro-3-[3-(1,1,2,2-tetrafluoroethoxy)phenyl]-8-[3,5-bis(trifluoromethyl)phenyl]-α-(trifluoromethyl)-, (3S,αR)—], for which the inhibition at 1 µM worked out at 43%, the “% Inhibition @ 1 μM” value is 40% and 5000 nM corresponded to half-maximal inhibition (IC50). `OC(CF)CN1c2cccc(-c3cccc(OC(F)(F)F)c3)c2OC[C@@H]1c1cccc(OC(F)(F)C(F)F)c1` (stereo in doubt) [Compound 74, 4H-1,4-Benzoxazine-4-ethanol, 2,3-dihydro-α-fluoromethyl-3-[3-(1,1,2,2-tetrafluoroethoxy)phenyl]-8-[3-(trifluoromethoxy)phenyl]-, (3S,αR)—] displayed an inhibition at 1 µM of 77% and an IC50 of 14 nM. As to `OC(CN1c2cccc(-c3cccc(OC(F)(F)F)c3)c2OCC1c1cccc(OC(F)(F)C(F)F)c1)C(F)(F)F` (single isomer, unassigned) [Compound 2, 1,1,1-Trifluoro-3-[3-[3-(1,1,2,2-tetrafluoro-ethoxy)-phenyl]-8-(3-trifluoromethoxy-phenyl)-2,3-dihydro-benzo[1,4]oxazin-4-yl]-propan-2-ol], the “% Inhibition @ 1 μM” value turned out to be 73%; the IC50 was 276 nM and 131 nM. Molecule `CC(C)(C)[Si](C)(C)OCCCN1c2cccc(-c3cccc(OC(F)(F)F)c3)c2OCC1c1cccc(OC(F)(F)C(F)F)c1` (centres unmarked) [Compound 25, 4-[3-(tert-Butyl-dimethyl-silanyloxy)-propyl]-3-[3-(1,1,2,2-tetrafluoro-ethoxy)-phenyl]-8-(3-trifluoromethoxy-phenyl)-3,4-dihydro-2H-benzo[1,4]oxazine] yielded an inhibition at 1 µM of 13%.

Regarding `OC(CN1c2cccc(-c3cccc(OC(F)(F)F)c3)c2OCC1c1cccc(OC(F)(F)F)c1)C(F)(F)F` (centres unmarked) [Compound 8, 3-[3,8-Bis-(3-trifluoromethoxy-phenyl)-2,3-dihydro-benzo[1,4]oxazin-4-yl]-1,1,1-trifluoro-propan-2-ol], the “% Inhibition @ 1 μM” value was 21%.

Take `CCOc1cccc(C2COc3c(-c4cccc(OC(F)(F)F)c4)cccc3N2CC(O)C(F)(F)F)c1` (centres unmarked) [Compound 17, 3-[3-(3-Ethoxy-phenyl)-8-(3-trifluoromethoxy-phenyl)-2,3-dihydro-benzo[1,4]oxazin-4-yl]-1,1,1-trifluoro-propan-2-ol]: the “% Inhibition @ 1 μM” value is 55% and 56%; the IC50 was determined as 490 nM.

Regarding `O[C@@H](CN1c2cccc(-c3cccc(OC(F)(F)F)c3)c2OC[C@H]1c1cccc(OC(F)(F)C(F)F)c1)C(F)(F)F` [Compound 6, 4H-1,4-Benzoxazine-4-ethanol, 2,3-dihydro-3-[3-(1,1,2,2-tetrafluoroethoxy)phenyl]-8-[3-(trifluoromethoxy)phenyl]-α-(trifluoromethyl)-, (3R,αS)—], the inhibition at 1 µM stood at 14%. On to `CS(=O)(=O)NCCN1c2cccc(-c3cccc(OC(F)(F)F)c3)c2OCC1c1cccc(OC(F)(F)C(F)F)c1` (centres unmarked) [Compound 43, N-{2-[3-[3-(1,1,2,2-Tetrafluoro-ethoxy)-phenyl]-8-(3-trifluoromethoxy-phenyl)-2,3-dihydro-benzo[1,4]oxazin-4-yl]-ethyl}-methanesulfonamide], for which testing at 1 µM gave an inhibition of 0%. For `OC(CN1c2cccc(-c3cccc(OC(F)(F)F)c3)c2OCC1c1ccc2c(c1)OC(F)(F)O2)C(F)(F)F` (centres unmarked) [Compound 13, 3-[3-(2,2-Difluoro-benzo[1,3]dioxol-5-yl)-8-(3-trifluoromethoxy-phenyl)-2,3-dihydro-benzo[1,4]oxazin-4-yl]-1,1,1-trifluoro-propan-2-ol], the inhibition at 1 µM amounted to 48%; the IC50 was 104 nM and 437 nM.

`OC[C@@H](O)CN1c2cccc(-c3cccc(OC(F)(F)F)c3)c2OC[C@H]1c1cccc(OC(F)(F)C(F)F)c1` [Compound 48, 1,2-Propanediol, 3-[(3R)-2,3-dihydro-3-[3-(1,1,2,2-tetrafluoroethoxy)phenyl]-8-[3-(trifluoromethoxy)phenyl]-4H-1,4-benzoxazin-4-yl]-, (2S)—] came in with an inhibition at 1 µM of 13%. `O[C@@H](CN1c2cccc(-c3cc(F)cc(F)c3)c2OC[C@@H]1c1cccc(OC(F)(F)F)c1)C(F)(F)F` [Compound 80, 4H-1,4-Benzoxazine-4-ethanol, 2,3-dihydro-3-[3-(trifluoromethoxy)phenyl]-8-[3,5-(difluoro)phenyl]-α-(trifluoromethyl)-, (3S,αS)—] came in with an inhibition at 1 µM of 100% and an IC50 of 193 nM.

Turning to `COCCCN1c2cccc(-c3cccc(OC(F)(F)F)c3)c2OCC1c1cccc(OC(F)(F)C(F)F)c1` (centres unmarked) [Compound 27, 4-(3-Methoxy-propyl)-3-[3-(1,1,2,2-tetrafluoro-ethoxy)-phenyl]-8-(3-trifluoromethoxy-phenyl)-3,4-dihydro-2H-benzo[1,4]oxazine], the inhibition at 1 µM is 29%. On to `O[C@H](CN1c2cccc(-c3cccc(OC(F)(F)F)c3)c2OC[C@@H]1c1cccc(OC(F)(F)F)c1)C(F)(F)F` [Compound 10, 4H-1,4-Benzoxazine-4-ethanol, 2,3-dihydro-3,8-bis[3-(trifluoromethoxy)phenyl]-α-(trifluoromethyl)-, (3S,αR)—], for which the inhibition at 1 µM stood at 23%.

In the case of `OC(CN1c2cccc(-c3cccc(OC(F)(F)F)c3)c2OCC1c1ccc(OC(F)(F)F)cc1)C(F)(F)F` (centres unmarked) [Compound 97, 1,1,1-Trifluoro-3-[3-(4-trifluoromethoxy-phenyl)-8-(3-trifluoromethoxy-phenyl)-2,3-dihydro-benzo[1,4]oxazin-4-yl]-propan-2-ol], the “% Inhibition @ 1 μM” value is listed as 38%.

As to `CC(C)(O)CN1c2cccc(-c3cccc(OC(F)(F)F)c3)c2OCC1c1cccc(OC(F)(F)C(F)F)c1` (centres unmarked) [Compound 49, 2-Methyl-1-[3-[3-(1,1,2,2-tetrafluoro-ethoxy)-phenyl]-8-(3-trifluoromethoxy-phenyl)-2,3-dihydro-benzo[1,4]oxazin-4-yl]-propan-2-ol], the inhibition at 1 µM came to 34%, the “% Inhibition @ 1 μM” value was 24% and half-maximal inhibition (IC50) required 560 nM.
